Values quoted from earlier work, collected in US20010006673A1, “LUTEIN- CONTAINING SUPPLEMENT AND PROCESS FOR ENHANCING IMMUNE RESPONSE IN ANIMALS” (priority 1998, published 2001).

Columns and labels:
Splenocytes = conditions: splenocytes from mice injected peritoneally; cited from earlier work
mouse splenocytes = conditions: cited from earlier work
human neuroblastoma cell = conditions: cited from earlier work
[1] = test system: chemical-induced carcinogenesis; conditions: mice; cited from earlier work
lymphocyte = conditions: rats; cited from earlier work
[2] = test system: tumor necrosis factor (TNF); conditions: hamsters; cited from earlier work

Row | Compound | Antibody response to T-dependent antigens (Splenocytes) | Ex vivo antibody response to T-dependent antigens (mouse splenocytes) | also measured
1 | CC1=C(/C=C/C(C)=C/C=C/C(C)=C/C=C/C=C(C)/C=C/C=C(C)/C=C/C2=C(C)CCCC2(C)C)C(C)(C)CCC1 [β-carotene] | enhanced | increase | –
2 | CC1=CCCC(C)(C)C1/C=C/C(C)=C/C=C/C(C)=C/C=C/C=C(C)/C=C/C=C(C)/C=C/C1=C(C)CCCC1(C)C (stereo not drawn) [α-carotene] | – | – | Human neuroblastoma cell proliferation (human neuroblastoma cell): inhibit
3 | CC1=C(/C=C/C(C)=C/C=C/C(C)=C/C=C/C=C(C)/C=C/C=C(C)/C=C/C2=C(C)C(=O)CCC2(C)C)C(C)(C)CCC1=O [canthaxanthin] | – | – | Chemical-induced carcinogenesis [1]: prevent; Lymphocyte proliferation (lymphocyte): increase; Production of tumor necrosis factor (TNF) by macrophages [2]: enhance
4 | CC1=C(/C=C/C(C)=C/C=C/C(C)=C/C=C/C=C(C)/C=C/C=C(C)/C=C/C2=C(C)C(=O)[C@@H](O)CC2(C)C)C(C)(C)C[C@H](O)C1=O [astaxanthin] | enhanced | increase | –
